Laboratory results: ChEMBL document CHEMBL2417375 (Bioorg Med Chem Lett, 2013)

Legend:
[1] = molecular target: Mu-type opioid receptor (Mus musculus) (UniProt P42866); assay: Agonist activity at mouse mu opioid receptor expressed in CHO cells assessed as stimulation of [35S]-GTPgammaS binding after 1.5 hrs relative to DAMGO; type: functional, cell-based
Mu-type opioid receptor [2] = molecular target: T1, Mu-type opioid receptor (Mus musculus, UniProt P42866); assay: Agonist activity at mouse mu opioid receptor expressed in CHO cells assessed as stimulation of [35S]-GTPgammaS binding after 1.5 hrs; type: functional, cell-based
[3] = molecular target: Delta-type opioid receptor (Mus musculus, UniProt P32300); assay: Displacement of [3H]-naltrindole from mouse delta opioid receptor expressed in CHO cells after 1.5 hrs; type: cell-based
[4] = molecular target: Kappa-type opioid receptor (Mus musculus, UniProt P33534); assay: Displacement of [3H]-diprenorphine from mouse kappa opioid receptor expressed in CHO cells after 1.5 hrs; type: cell-based
Mu-type opioid receptor [5] = molecular target: T1, Mu-type opioid receptor; assay: Displacement of [3H]-naloxone from mouse mu opioid receptor expressed in CHO cells after 1.5 hrs; type: cell-based
Mus musculus [6] = species: Mus musculus; assay: Selectivity ratio of Ki for mouse delta opioid receptor to Ki for mouse mu opioid receptor
Mus musculus [7] = species: Mus musculus; assay: Selectivity ratio of Ki for mouse kappa opioid receptor to Ki for mouse mu opioid receptor

Sequence of Delta-type opioid receptor (P32300 whole entry): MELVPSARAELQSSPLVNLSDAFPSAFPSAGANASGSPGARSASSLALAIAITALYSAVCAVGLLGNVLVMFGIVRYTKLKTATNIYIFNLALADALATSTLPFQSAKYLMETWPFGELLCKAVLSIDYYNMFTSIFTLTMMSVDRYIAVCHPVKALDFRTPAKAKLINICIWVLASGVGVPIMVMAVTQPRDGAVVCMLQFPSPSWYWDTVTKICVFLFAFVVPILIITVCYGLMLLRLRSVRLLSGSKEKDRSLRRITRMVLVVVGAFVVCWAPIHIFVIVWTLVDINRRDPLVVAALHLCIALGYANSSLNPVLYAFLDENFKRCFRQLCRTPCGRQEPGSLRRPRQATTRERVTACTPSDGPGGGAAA
T1 sequence (P42866 whole entry): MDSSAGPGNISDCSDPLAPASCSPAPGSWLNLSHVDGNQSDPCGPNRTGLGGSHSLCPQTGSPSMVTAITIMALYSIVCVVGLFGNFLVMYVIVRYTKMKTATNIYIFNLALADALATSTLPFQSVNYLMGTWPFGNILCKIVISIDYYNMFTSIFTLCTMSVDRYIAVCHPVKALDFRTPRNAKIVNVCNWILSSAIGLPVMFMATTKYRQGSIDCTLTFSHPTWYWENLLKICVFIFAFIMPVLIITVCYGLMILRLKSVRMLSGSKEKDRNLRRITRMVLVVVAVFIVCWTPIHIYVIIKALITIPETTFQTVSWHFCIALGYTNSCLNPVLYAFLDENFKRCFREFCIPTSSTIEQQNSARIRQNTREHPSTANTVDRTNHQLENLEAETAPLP
Sequence of Mu-type opioid receptor (Mus musculus) (P42866 whole entry): as above
Sequence of Kappa-type opioid receptor (P33534 whole entry): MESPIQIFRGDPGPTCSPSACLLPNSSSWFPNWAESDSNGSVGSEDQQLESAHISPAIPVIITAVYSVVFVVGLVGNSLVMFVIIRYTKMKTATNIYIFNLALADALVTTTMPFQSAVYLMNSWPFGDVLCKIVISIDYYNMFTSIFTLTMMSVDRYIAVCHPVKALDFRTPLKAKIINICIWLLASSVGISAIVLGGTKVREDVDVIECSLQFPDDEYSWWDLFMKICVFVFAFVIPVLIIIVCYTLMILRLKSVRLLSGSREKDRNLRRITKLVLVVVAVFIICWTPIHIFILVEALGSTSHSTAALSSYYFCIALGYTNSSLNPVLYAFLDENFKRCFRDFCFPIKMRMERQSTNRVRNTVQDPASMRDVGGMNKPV

SMILES	Emax [1] [%]	EC50 (Mu-type opioid receptor [2]) [nM]	Ki [3] [nM]	Ki [4] [nM]	Ki (Mu-type opioid receptor [5]) [nM]	Ratio Ki (Mus musculus [6])	Ratio Ki (Mus musculus [7])
O=C(N[C@H]1CC[C@@]2(O)[C@H]3Cc4ccc(O)c5c4[C@@]2(CCN3CC2CC2)[C@H]1O5)c1ncc2ccccc2c1O	20.5	1.06	32.8	4	0.45		
O=C(Cc1cc2ccccc2cn1)N[C@H]1CC[C@@]2(O)[C@H]3Cc4ccc(O)c5c4[C@@]2(CCN3CC2CC2)[C@H]1O5	18.6	4.6	12.5	1.1	1.2	10	0.9
COc1c(C(=O)N[C@H]2CC[C@@]3(O)[C@H]4Cc5ccc(O)c6c5[C@@]3(CCN4CC3CC3)[C@H]2O6)nc(Cl)c2ccccc12		1.74	33.9	22.2			
O=C(N[C@H]1CC[C@@]2(O)[C@H]3Cc4ccc(O)c5c4[C@@]2(CCN3CC2CC2)[C@H]1O5)c1ncc2ccccc2n1	21.6	6	78.8	5.1	1.11	71	4.6
O=C(CNC(=O)c1cc2ccccc2cn1)N[C@H]1CC[C@@]2(O)[C@H]3Cc4ccc(O)c5c4[C@@]2(CCN3CC2CC2)[C@H]1O5	13.9	14.1	9.2	0.61	2.7	3.4	0.2
O=C(N[C@H]1CC[C@@]2(O)[C@H]3Cc4ccc(O)c5c4[C@@]2(CCN3CC2CC2)[C@H]1O5)c1cc2ccccc2c(Cl)n1			79.8	10.8			
Cc1nc(C(=O)N[C@H]2CC[C@@]3(O)[C@H]4Cc5ccc(O)c6c5[C@@]3(CCN4CC3CC3)[C@H]2O6)cc2ccccc12	22.2	7.2	117	29.1	2.1		
CN1Cc2ccccc2C[C@H]1C(=O)N[C@H]1CC[C@@]2(O)[C@H]3Cc4ccc(O)c5c4[C@@]2(CCN3CC2CC2)[C@H]1O5	24.8	19.4	9.3	6.76	2.9	3.2	2.3
N#Cc1nc(C(=O)N[C@H]2CC[C@@]3(O)[C@H]4Cc5ccc(O)c6c5[C@@]3(CCN4CC3CC3)[C@H]2O6)cc2ccccc12	37.5	3.32	130	10.1	0.99	131	10
O=C(N[C@H]1CC[C@@]2(O)[C@H]3Cc4ccc(O)c5c4[C@@]2(CCN3CC2CC2)[C@H]1O5)c1nc(Cl)c2ccccc2c1O	19.8	1.23	17.4	18.3	0.73	24	25
O=C(N[C@H]1CC[C@@]2(O)[C@H]3Cc4ccc(O)c5c4[C@@]2(CCN3CC2CC2)[C@H]1O5)c1cc2ccccc2cn1			162				
O=C(CCc1cc2ccccc2cn1)N[C@H]1CC[C@@]2(O)[C@H]3Cc4ccc(O)c5c4[C@@]2(CCN3CC2CC2)[C@H]1O5	27.4	1.14	8.4	1.61	0.68	12	2.4
